{"source": "paper PMC9898036", "about": "“VIP152 is a selective CDK9 inhibitor with pre-clinical in vitro and in vivo efficacy in chronic lymphocytic leukemia” (Leukemia, 2022)", "assay_type_in_all_cases": "binding", "key": {"[1]": {"biological_target": "SRPK2 (Homo sapiens, UniProt P78362)", "assay": "KINOMEscan: SRPK2", "details": "100 nM, read-out: Percent Control"}, "[2]": {"biological_target": "CLK2 (Homo sapiens, UniProt P49760)", "sequence (P49760 whole entry)": "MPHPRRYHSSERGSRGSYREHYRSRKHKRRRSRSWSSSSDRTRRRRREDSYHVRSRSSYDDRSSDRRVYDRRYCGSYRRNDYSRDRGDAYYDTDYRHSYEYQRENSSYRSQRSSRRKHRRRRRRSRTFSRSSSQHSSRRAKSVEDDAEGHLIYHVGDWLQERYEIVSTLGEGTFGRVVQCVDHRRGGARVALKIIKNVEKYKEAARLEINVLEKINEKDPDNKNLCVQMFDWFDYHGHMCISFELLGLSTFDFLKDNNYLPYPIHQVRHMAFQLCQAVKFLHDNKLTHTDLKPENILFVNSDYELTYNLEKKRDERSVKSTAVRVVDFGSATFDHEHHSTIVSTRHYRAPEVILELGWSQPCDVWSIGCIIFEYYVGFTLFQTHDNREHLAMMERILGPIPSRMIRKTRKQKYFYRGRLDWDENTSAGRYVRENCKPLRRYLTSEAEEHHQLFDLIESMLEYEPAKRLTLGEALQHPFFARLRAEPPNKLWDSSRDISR", "assay": "KINOMEscan: CLK2", "details": "1000 nM, read-out: Percent Control"}, "[3]": {"biological_target": "human kinome (Homo sapiens, UniProt Q9BRS2)", "assay": "DiscoverX KINOMEscan kinase profiling (468 assays)", "details": "kinase RIOK1 (Entrez RIOK1); compound concentration 1000 nM; read-out: Percent Control", "method": "(§1) Kinomescan Kinase Profiling Assay\n(§2) Kinomescan Assay was performed at DiscoverRX and described in Fabian, et al. 2005, Nat.\n(§3) Biotechnol. In brief, kinases were produced and subsequently tagged with DNA for qPCR detection.\n(§4) Streptavidin-coated magnetic beads were bound to biotinylated kinase ligands to serve as a solid support.\n(§5) VIP152 was dissolved in DMSO and tested across a 10 serial threefold dilution set and compared to a test\n(§6) compound and a DMSO control.\n(§7) Kinome map was produced via TreeSpot\n(§8) Analysis from DiscoverRX. […]"}, "[4]": {"biological_target": "human kinome (Homo sapiens, UniProt Q99755)", "sequence (Q99755 whole entry)": "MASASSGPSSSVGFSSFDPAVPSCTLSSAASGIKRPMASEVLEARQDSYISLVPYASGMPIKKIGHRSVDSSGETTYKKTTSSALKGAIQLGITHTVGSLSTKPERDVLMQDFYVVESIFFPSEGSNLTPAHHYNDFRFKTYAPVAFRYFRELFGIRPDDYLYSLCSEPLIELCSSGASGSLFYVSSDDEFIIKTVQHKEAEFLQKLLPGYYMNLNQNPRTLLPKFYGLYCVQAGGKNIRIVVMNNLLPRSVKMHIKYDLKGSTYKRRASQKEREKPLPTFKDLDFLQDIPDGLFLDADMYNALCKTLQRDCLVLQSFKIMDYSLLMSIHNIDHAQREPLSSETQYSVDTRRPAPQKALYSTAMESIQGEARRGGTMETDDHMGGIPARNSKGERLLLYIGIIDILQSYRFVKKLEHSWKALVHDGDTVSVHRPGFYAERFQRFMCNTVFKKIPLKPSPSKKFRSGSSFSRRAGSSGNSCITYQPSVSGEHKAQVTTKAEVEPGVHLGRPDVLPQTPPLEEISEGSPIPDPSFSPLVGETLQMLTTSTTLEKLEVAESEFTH", "assay": "DiscoverX KINOMEscan kinase profiling (468 assays)", "details": "read-out: Percent Control", "method": "as §1, §2, §3, §4, §5, §6, §7, §8"}, "[5]": {"biological_target": "human kinome (Homo sapiens, UniProt Q13873)", "assay": "DiscoverX KINOMEscan kinase profiling (468 assays)", "details": "BMPR2; 100 nM; read-out: Percent Control", "method": "as §1, §2, §3, §4, §5, §6, §7, §8"}, "[6]": {"biological_target": "human kinome (Homo sapiens, UniProt O94806)", "sequence (O94806 whole entry)": "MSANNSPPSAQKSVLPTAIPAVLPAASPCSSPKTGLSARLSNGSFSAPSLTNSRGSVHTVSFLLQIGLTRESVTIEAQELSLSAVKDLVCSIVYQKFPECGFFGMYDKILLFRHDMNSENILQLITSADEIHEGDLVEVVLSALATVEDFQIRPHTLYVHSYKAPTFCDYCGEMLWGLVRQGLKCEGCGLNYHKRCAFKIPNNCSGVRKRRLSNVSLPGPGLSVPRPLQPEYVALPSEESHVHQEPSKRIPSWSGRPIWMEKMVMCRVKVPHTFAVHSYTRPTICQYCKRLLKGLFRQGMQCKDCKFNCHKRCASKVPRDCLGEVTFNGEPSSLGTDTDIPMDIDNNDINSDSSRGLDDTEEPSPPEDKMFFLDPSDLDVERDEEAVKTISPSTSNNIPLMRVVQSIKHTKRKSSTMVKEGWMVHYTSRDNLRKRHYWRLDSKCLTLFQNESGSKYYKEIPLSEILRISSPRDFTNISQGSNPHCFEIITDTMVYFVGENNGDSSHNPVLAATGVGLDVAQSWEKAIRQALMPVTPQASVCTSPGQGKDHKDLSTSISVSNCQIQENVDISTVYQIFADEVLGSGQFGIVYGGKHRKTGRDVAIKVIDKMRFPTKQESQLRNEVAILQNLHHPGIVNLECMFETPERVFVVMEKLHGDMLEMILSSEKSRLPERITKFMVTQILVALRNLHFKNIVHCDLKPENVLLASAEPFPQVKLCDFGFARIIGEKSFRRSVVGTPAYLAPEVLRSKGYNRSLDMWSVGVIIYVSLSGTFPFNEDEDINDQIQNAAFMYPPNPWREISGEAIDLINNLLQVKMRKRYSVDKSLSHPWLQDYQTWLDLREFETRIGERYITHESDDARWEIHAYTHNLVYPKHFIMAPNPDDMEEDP", "assay": "DiscoverX KINOMEscan kinase profiling (468 assays)", "details": "read-out: Percent Control", "method": "as §1, §2, §3, §4, §5, §6, §7, §8"}, "[7]": {"biological_target": "human kinome (Homo sapiens, UniProt P42345)", "assay": "DiscoverX KINOMEscan kinase profiling (468 assays)", "details": "MTOR; 100 nM; read-out: Percent Control", "method": "as §1, §2, §3, §4, §5, §6, §7, §8"}, "[8]": {"biological_target": "human kinome (Homo sapiens, UniProt Q5VT25)", "assay": "DiscoverX KINOMEscan kinase profiling (468 assays)", "details": "MRCKA (Entrez CDC42BPA); 100 nM; read-out: Percent Control", "method": "as §1, §2, §3, §4, §5, §6, §7, §8"}, "[9]": {"biological_target": "human kinome (Homo sapiens, UniProt O43683)", "assay": "DiscoverX KINOMEscan kinase profiling (468 assays)", "details": "BUB1; 100 nM; read-out: Percent Control", "method": "as §1, §2, §3, §4, §5, §6, §7, §8"}, "[10]": {"biological_target": "human kinome (Homo sapiens, UniProt P52333)", "assay": "DiscoverX KINOMEscan kinase profiling (468 assays)", "details": "JAK3(JH1domain-catalytic); 100 nM; read-out: Percent Control", "method": "as §1, §2, §3, §4, §5, §6, §7, §8"}, "[11]": {"biological_target": "human kinome (Homo sapiens, UniProt Q9Y3S1)", "assay": "DiscoverX KINOMEscan kinase profiling (468 assays)", "details": "kinase WNK2 (Entrez WNK2); compound concentration 1000 nM; read-out: Percent Control", "method": "as §1, §2, §3, §4, §5, §6, §7, §8"}, "[12]": {"biological_target": "human kinome (Homo sapiens, UniProt Q15303)", "assay": "DiscoverX KINOMEscan kinase profiling (468 assays)", "details": "ERBB4; 100 nM; read-out: Percent Control", "method": "as §1, §2, §3, §4, §5, §6, §7, §8"}, "[13]": {"biological_target": "human kinome (Homo sapiens, UniProt Q8NFD2)", "assay": "DiscoverX KINOMEscan kinase profiling (468 assays)", "details": "ANKK1; 100 nM; read-out: Percent Control", "method": "as §1, §2, §3, §4, §5, §6, §7, §8"}, "[14]": {"biological_target": "human kinome (Homo sapiens, UniProt P80192)", "assay": "DiscoverX KINOMEscan kinase profiling (468 assays)", "details": "MLK1 (Entrez MAP3K9); 100 nM; read-out: Percent Control", "method": "as §1, §2, §3, §4, §5, §6, §7, §8"}, "[15]": {"biological_target": "human kinome (Homo sapiens, UniProt P41240)", "assay": "DiscoverX KINOMEscan kinase profiling (468 assays)", "details": "CSK; 100 nM; read-out: Percent Control", "method": "as §1, §2, §3, §4, §5, §6, §7, §8"}, "[16]": {"biological_target": "human kinome (Homo sapiens, UniProt Q16539)", "sequence (Q16539 whole entry)": "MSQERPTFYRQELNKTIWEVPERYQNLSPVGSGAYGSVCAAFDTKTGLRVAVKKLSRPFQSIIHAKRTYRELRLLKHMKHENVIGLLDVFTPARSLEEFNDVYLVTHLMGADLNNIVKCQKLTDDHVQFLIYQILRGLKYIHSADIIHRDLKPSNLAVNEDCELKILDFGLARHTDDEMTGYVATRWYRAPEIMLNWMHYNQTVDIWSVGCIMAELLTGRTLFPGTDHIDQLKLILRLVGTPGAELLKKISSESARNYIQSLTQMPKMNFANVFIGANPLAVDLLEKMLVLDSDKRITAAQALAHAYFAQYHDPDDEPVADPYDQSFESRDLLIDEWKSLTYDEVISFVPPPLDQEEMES", "assay": "DiscoverX KINOMEscan kinase profiling (468 assays)", "details": "read-out: Percent Control", "method": "as §1, §2, §3, §4, §5, §6, §7, §8"}, "[17]": {"biological_target": "human kinome (Homo sapiens, UniProt Q9NWZ3)", "assay": "DiscoverX KINOMEscan kinase profiling (468 assays)", "details": "IRAK4; 100 nM; read-out: Percent Control", "method": "as §1, §2, §3, §4, §5, §6, §7, §8"}, "[18]": {"biological_target": "human kinome (Homo sapiens, UniProt P57078)", "assay": "DiscoverX KINOMEscan kinase profiling (468 assays)", "details": "kinase RIPK4 (Entrez RIPK4); compound concentration 1000 nM; read-out: Percent Control", "method": "as §1, §2, §3, §4, §5, §6, §7, §8"}, "[19]": {"biological_target": "human kinome (Homo sapiens, UniProt P07949)", "assay": "DiscoverX KINOMEscan kinase profiling (468 assays)", "details": "kinase RET (Entrez RET); compound concentration 1000 nM; read-out: Percent Control", "method": "as §1, §2, §3, §4, §5, §6, §7, §8"}, "[20]": {"biological_target": "human kinome (Homo sapiens, UniProt Q9NSY1)", "assay": "DiscoverX KINOMEscan kinase profiling (468 assays)", "details": "BIKE (Entrez BMP2K); 100 nM; read-out: Percent Control", "method": "as §1, §2, §3, §4, §5, §6, §7, §8"}, "[21]": {"biological_target": "human kinome (Homo sapiens, UniProt P54764)", "sequence (P54764 20-986)": "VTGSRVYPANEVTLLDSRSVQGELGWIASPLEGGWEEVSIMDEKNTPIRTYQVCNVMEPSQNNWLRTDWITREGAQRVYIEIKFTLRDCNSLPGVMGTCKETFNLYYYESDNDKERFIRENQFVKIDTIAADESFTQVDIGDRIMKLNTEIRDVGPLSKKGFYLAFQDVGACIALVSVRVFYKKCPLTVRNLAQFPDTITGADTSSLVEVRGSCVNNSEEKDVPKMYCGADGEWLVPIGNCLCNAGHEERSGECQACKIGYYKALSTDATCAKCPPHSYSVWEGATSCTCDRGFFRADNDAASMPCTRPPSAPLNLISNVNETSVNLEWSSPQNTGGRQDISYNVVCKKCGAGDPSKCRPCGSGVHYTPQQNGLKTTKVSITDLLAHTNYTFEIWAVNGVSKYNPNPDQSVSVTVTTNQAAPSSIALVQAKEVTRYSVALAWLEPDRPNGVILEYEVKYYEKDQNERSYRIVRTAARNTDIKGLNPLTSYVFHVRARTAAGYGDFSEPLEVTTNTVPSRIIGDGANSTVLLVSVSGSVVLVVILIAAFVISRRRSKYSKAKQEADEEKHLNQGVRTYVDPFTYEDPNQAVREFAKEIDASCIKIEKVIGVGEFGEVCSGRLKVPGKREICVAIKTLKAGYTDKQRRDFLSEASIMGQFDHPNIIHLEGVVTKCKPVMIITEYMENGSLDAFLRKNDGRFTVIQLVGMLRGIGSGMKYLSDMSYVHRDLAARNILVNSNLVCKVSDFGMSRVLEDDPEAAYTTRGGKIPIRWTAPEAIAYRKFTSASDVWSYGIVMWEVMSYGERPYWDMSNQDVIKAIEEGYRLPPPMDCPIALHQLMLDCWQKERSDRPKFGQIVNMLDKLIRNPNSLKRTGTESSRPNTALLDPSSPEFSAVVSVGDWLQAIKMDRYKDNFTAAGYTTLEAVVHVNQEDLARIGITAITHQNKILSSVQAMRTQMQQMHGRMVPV", "assay": "DiscoverX KINOMEscan kinase profiling (468 assays)", "details": "EPHA4; 100 nM; read-out: Percent Control", "method": "as §1, §2, §3, §4, §5, §6, §7, §8"}, "[22]": {"biological_target": "human kinome (Homo sapiens, UniProt P29597)", "sequence (P29597 whole entry)": "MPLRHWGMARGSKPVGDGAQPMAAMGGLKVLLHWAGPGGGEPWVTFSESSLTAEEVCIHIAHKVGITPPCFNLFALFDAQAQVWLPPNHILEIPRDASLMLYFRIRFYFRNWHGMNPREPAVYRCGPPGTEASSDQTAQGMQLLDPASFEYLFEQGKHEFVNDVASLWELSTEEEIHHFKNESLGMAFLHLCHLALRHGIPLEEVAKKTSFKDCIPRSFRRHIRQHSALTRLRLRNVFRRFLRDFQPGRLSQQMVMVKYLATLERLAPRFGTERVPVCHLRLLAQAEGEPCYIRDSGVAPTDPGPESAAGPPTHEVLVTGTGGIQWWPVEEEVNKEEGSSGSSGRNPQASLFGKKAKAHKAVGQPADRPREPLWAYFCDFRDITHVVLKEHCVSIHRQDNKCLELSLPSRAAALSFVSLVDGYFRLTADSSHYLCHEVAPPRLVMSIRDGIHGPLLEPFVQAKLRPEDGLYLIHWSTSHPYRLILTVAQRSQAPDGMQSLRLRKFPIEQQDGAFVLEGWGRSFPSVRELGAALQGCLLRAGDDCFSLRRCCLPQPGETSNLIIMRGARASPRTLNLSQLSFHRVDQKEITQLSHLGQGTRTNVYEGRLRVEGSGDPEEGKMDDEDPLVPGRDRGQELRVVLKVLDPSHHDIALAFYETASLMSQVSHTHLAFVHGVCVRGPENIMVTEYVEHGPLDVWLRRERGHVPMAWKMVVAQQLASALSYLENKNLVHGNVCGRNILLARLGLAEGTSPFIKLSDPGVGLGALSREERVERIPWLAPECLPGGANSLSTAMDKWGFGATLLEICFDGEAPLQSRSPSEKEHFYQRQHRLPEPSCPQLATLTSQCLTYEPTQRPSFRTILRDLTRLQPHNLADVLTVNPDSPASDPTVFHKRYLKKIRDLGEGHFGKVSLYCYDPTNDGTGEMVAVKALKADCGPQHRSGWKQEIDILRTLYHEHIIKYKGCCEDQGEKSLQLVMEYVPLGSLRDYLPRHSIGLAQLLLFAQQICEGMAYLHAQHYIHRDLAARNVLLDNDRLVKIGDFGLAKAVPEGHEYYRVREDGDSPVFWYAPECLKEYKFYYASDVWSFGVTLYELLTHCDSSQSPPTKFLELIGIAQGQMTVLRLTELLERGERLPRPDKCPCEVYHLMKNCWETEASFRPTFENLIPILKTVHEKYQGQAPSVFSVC", "assay": "DiscoverX KINOMEscan kinase profiling (468 assays)", "details": "compound concentration 1000 nM, read-out: Percent Control", "method": "as §1, §2, §3, §4, §5, §6, §7, §8"}, "[23]": {"biological_target": "human kinome (Homo sapiens, UniProt Q86V86)", "assay": "DiscoverX KINOMEscan kinase profiling (468 assays)", "details": "read-out: Percent Control", "method": "as §1, §2, §3, §4, §5, §6, §7, §8"}, "[24]": {"biological_target": "human kinome (Homo sapiens, UniProt Q96RR4)", "assay": "DiscoverX KINOMEscan kinase profiling (468 assays)", "details": "CAMKK2; 100 nM; read-out: Percent Control", "method": "as §1, §2, §3, §4, §5, §6, §7, §8"}, "[25]": {"biological_target": "SIK2 (Homo sapiens, UniProt Q9H0K1)", "assay": "KINOMEscan: SIK2", "details": "100 nM, read-out: Percent Control"}, "[26]": {"biological_target": "FLT3(D835H) (Homo sapiens, UniProt P36888, D835H)", "assay": "KINOMEscan: FLT3(D835H)", "details": "1000 nM, read-out: Percent Control"}, "[27]": {"biological_target": "PFCDPK1(P.falciparum) (Plasmodium falciparum, UniProt P62344)", "assay": "DiscoverX KINOMEscan kinase profiling: PFCDPK1(P.falciparum)", "details": "PFCDPK1(P.falciparum) (Entrez CDPK1); 100 nM; read-out: Percent Control"}, "[28]": {"biological_target": "EPHA7 (Homo sapiens, UniProt Q15375)", "assay": "KINOMEscan: EPHA7", "details": "1000 nM, read-out: Percent Control"}, "[29]": {"biological_target": "BRSK1 (Homo sapiens, UniProt Q8TDC3)", "assay": "KINOMEscan: BRSK1", "details": "1000 nM, read-out: Percent Control"}, "[30]": {"biological_target": "MLK2 (Homo sapiens, UniProt Q02779)", "assay": "KINOMEscan: MLK2", "details": "1000 nM, read-out: Percent Control"}, "[31]": {"biological_target": "MLK1 (Homo sapiens, UniProt P80192)", "assay": "KINOMEscan: MLK1", "details": "1000 nM, read-out: Percent Control"}}, "note": "Read-outs that look alike come from different tables or passages of the source."}
{"smiles": "COc1cc(F)ccc1-c1cc(Nc2cc(CS(C)(=N)=O)ccn2)ncc1F", "note": "(stereo not drawn) [VIP152]", "values": [{"measurement": "remaining binding at 0.1 µM", "setting": "[1]", "value": 100, "unit": "%"}, {"measurement": "remaining binding at 1 µM", "setting": "[2]", "value": 82, "unit": "%"}, {"measurement": "remaining binding at 1 µM", "setting": "[3]", "value": 79, "unit": "%"}, {"measurement": "remaining binding at 0.1 µM", "setting": "[4]; PIP5K1A, 100 nM", "value": 90, "unit": "%"}, {"measurement": "remaining binding at 1 µM", "setting": "[4]; kinase PIP5K1A (Entrez PIP5K1A), compound concentration 1000 nM", "value": 18, "unit": "%"}, {"measurement": "remaining binding at 0.1 µM", "setting": "[5]", "value": 99, "unit": "%"}, {"measurement": "remaining binding at 0.1 µM", "setting": "[6]; PRKD3, 100 nM", "value": 91, "unit": "%"}, {"measurement": "remaining binding at 1 µM", "setting": "[6]; kinase PRKD3 (Entrez PRKD3), compound concentration 1000 nM", "value": 100, "unit": "%"}, {"measurement": "remaining binding at 0.1 µM", "setting": "[7]", "value": 59, "unit": "%"}, {"measurement": "remaining binding at 0.1 µM", "setting": "[8]", "value": 100, "unit": "%"}, {"measurement": "remaining binding at 0.1 µM", "setting": "[9]", "value": 100, "unit": "%"}, {"measurement": "remaining binding at 0.1 µM", "setting": "[10]", "value": 100, "unit": "%"}, {"measurement": "remaining binding at 1 µM", "setting": "[11]", "value": 85, "unit": "%"}, {"measurement": "remaining binding at 0.1 µM", "setting": "[12]", "value": 100, "unit": "%"}, {"measurement": "remaining binding at 0.1 µM", "setting": "[13]", "value": 100, "unit": "%"}, {"measurement": "remaining binding at 0.1 µM", "setting": "[14]", "value": 100, "unit": "%"}, {"measurement": "remaining binding at 0.1 µM", "setting": "[15]", "value": 100, "unit": "%"}, {"measurement": "remaining binding at 1 µM", "setting": "[16]; kinase p38-alpha (Entrez MAPK14), compound concentration 1000 nM", "value": 100, "unit": "%"}, {"measurement": "remaining binding at 0.1 µM", "setting": "[16]; p38-alpha (Entrez MAPK14), 100 nM", "value": 100, "unit": "%"}, {"measurement": "remaining binding at 0.1 µM", "setting": "[17]", "value": 100, "unit": "%"}, {"measurement": "remaining binding at 1 µM", "setting": "[18]", "value": 49, "unit": "%"}, {"measurement": "remaining binding at 1 µM", "setting": "[19]", "value": 94, "unit": "%"}, {"measurement": "remaining binding at 0.1 µM", "setting": "[20]", "value": 100, "unit": "%"}, {"measurement": "remaining binding at 0.1 µM", "setting": "[21]", "value": 73, "unit": "%"}, {"measurement": "remaining binding at 1 µM", "setting": "[22]; kinase TYK2(JH1domain-catalytic) (Entrez TYK2)", "value": 44, "unit": "%"}, {"measurement": "remaining binding at 1 µM", "setting": "[22]; kinase TYK2(JH2domain-pseudokinase) (Entrez TYK2)", "value": 4.8, "unit": "%"}, {"measurement": "remaining binding at 0.1 µM", "setting": "[23]; PIM3, 100 nM", "value": 100, "unit": "%"}, {"measurement": "remaining binding at 1 µM", "setting": "[23]; kinase PIM3 (Entrez PIM3), compound concentration 1000 nM", "value": 100, "unit": "%"}, {"measurement": "remaining binding at 0.1 µM", "setting": "[24]", "value": 92, "unit": "%"}, {"measurement": "remaining binding at 0.1 µM", "setting": "[25]", "value": 63, "unit": "%"}, {"measurement": "remaining binding at 1 µM", "setting": "[26]", "value": 57, "unit": "%"}, {"measurement": "remaining binding at 0.1 µM", "setting": "[27]", "value": 97, "unit": "%"}, {"measurement": "remaining binding at 1 µM", "setting": "[28]", "value": 100, "unit": "%"}, {"measurement": "remaining binding at 1 µM", "setting": "[29]", "value": 83, "unit": "%"}, {"measurement": "remaining binding at 1 µM", "setting": "[30]", "value": 100, "unit": "%"}, {"measurement": "remaining binding at 1 µM", "setting": "[31]", "value": 76, "unit": "%"}]}
